Laboratory results published in PubChem BioAssay AID1963962 (Molecular Pharmacology Branch, DTP, NCI, 2024).

Tested on: 967376-340-R-J2-PDC multicell spheroid viability
Experiment: Anticancer human tumor 967376-340-R-J2-PDC patient-derived colon adenocarcinoma cell line growth inhibition [PI3K]
Settings: for IC50: curve of first compound; for viability, T/C: stronger effect = lower value
From the text: Combinatorial screen of targeted agents with the PI3K inhibitors inavolisib, alpelisib, duvelisib, and copanlisib in multi-cell type tumor spheroids
A high-throughput screen of multi-cell type tumor spheroids was designed to identify active combinations of targeted small molecules and PI3K pathway inhibitors. Complex spheroids include a stromal component modeled by human endothelial cells (HUVEC) and fibroblasts modeled by human mesenchymal stem cells (MSCs). The concentration ranges selected for each drug and investigational agent were based upon clinically achievable concentrations if the clinical Cmax of the agent was known.
Compounds. The drugs and investigational agents: inavolisib (NSC800729), alpelisib (NSC765974), duvelisib (NSC772469), copanlisib (NSC816437), ipatasertib (NSC767898), afuresertib (NSC778305), talazoparib (NSC767125), sapanisertib (NSC764658), selumetinib (NSC741078), tovorafenib (DAY101, NSC766906), vemurafenib (NSC761431), ravoxertinib (NSC781343), sotorasib (NSC818433), MRTX1133 (NSC 836407), abemaciclib (NSC 768073), palbociclib (NSC758247), venetoclax (NSC 766270), SY5609 (NSC837396), enzalutamide (NSC755605), and darolutamide (NSC825331), were obtained from the National Cancer Institute (NCI) Developmental Therapeutics Program Chemical Repository. The FDA-approved anticancer drug set is available from the NCI Developmental Therapeutics Program. […] The stock solutions were prepared in dimethyl sulfoxide (DMSO, Sigma-Aldrich, St. Louis, MO, cat. D2650) at 800-fold the tested concentration and stored at -70 degrees C prior to their use. All drugs and investigational agents were tested over a range starting from a high concentration at or near the clinical Cmax and decreasing in half-log increments. If the clinical Cmax for an agent had not been determined, the highest concentration tested was 10 microM.
Cell Culture. All cells were maintained in an incubator at 37 degrees C and 5% CO2 with 95% humidity. The PDC lines were cultured according to standard operating procedures established by the NCI PDMR (https://pdmr.cancer.gov/sops/default.htm). All PDCs were thawed and cultured in Matrigel-coated flasks prepared with a working solution of 1X Ham's F-12 nutrient mix, without supplementation (Invitrogen, Waltham, MA, cat. 11765054), 100 U/mL penicillin-streptomycin (Invitrogen, cat. 15140122), and 2.5% Matrigel (Corning Inc., Corning, NY, cat. 354248) for the first three passages. The 354836-022-R-J1-PDC, 475296-252-R-J1-PDC, and 997726-040-R-J2-PDC lines were cultured in 6A media, which includes advanced DMEM/F-12 (Thermo Fisher Scientific, cat. 12634028), 10 mM HEPES (Thermo Fisher Scientific, cat. 15630080), 1X GlutaMAX supplement (Thermo Fisher Scientific, cat. 35050061), 0.1 mg/mL primocin (InvivoGen, San Diego, CA, cat. ant-pm-2), 10% defined fetal bovine serum, heat inactivated (HyClone Laboratories Inc., Logan, UT, cat. SH30070.03HI), 50% L-WRN conditioned media (ATCC, cat. CRL-3276), 1.25 mM N-Acetyl-L-cysteine (Sigma-Aldrich, cat. A9165), 10 mM nicotinamide (Sigma-Aldrich, cat. N0636), 1X B-27 supplement (Thermo Fisher Scientific, cat. 17504044), 1X N-2 supplement (Thermo Fisher Scientific, cat. 17502048), and 10 microM Y-27632 dihydrochloride (Tocris Bioscience, Bristol, United Kingdom, cat. 1254). The 624824-186-R-J2-PDC line was cultured in 6C/Colon 1B media, which includes all 6A media components plus 50 ng/mL human EGF recombinant protein (Thermo Fisher Scientific, cat. PHG0311). […]

[1] = second compound 0.0316 µM, first compound 0.0316 µM
[2] = second compound 0.0316 µM, first compound 0.1 µM
[3] = second compound 0.1 µM, first compound 0.0316 µM
[4] = second compound 0.1 µM, first compound 0.1 µM
[5] = second compound 0.316 µM, first compound 0.0316 µM
[6] = second compound 0.316 µM, first compound 0.1 µM
[7] = second compound 1 µM, first compound 0.0316 µM
[8] = second compound 1 µM, first compound 0.1 µM
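Note: spheroids exposed to agents for 7 days before read-out.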
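Throughout, for viability, T/C: luminescence used as surrogate of cell viability.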

C[C@@H](NC(=O)c1ncnc(N)c1Cl)c1ncc(C(=O)Nc2cc(C(F)(F)F)c(Cl)cn2)s1 + CC(Nc1ncnc2nc[nH]c12)c1cc2cccc(Cl)c2c(=O)n1-c1ccccc1
IC50 (second compound 0.0316 µM): > 10 µM | IC50 (second compound 0.1 µM): > 10 µM | IC50 (second compound 0.316 µM): > 10 µM | IC50 (second compound 1 µM): > 10 µM | IC50 (second compound 3.16 µM): > 10 µM | IC50 (second compound 10 µM): > 10 µM | viability, T/C [1]: 100% | viability, T/C [2]: 129% | viability, T/C (second compound 0.0316 µM, first compound 0.316 µM): 109% | viability, T/C (second compound 0.0316 µM, first compound 1 µM): 104% | viability, T/C (second compound 0.0316 µM, first compound 3.16 µM): 101% | viability, T/C (second compound 0.0316 µM, first compound 10 µM): 98.9% | viability, T/C [3]: 123% | viability, T/C [4]: 112% | viability, T/C (second compound 0.1 µM, first compound 0.316 µM): 90.5% | viability, T/C (second compound 0.1 µM, first compound 1 µM): 102% | viability, T/C (second compound 0.1 µM, first compound 3.16 µM): 110% | viability, T/C (second compound 0.1 µM, first compound 10 µM): 117% | viability, T/C [5]: 92.5% | viability, T/C [6]: 102% | viability, T/C (second compound 0.316 µM, first compound 0.316 µM): 109% | viability, T/C (second compound 0.316 µM, first compound 1 µM): 107% | viability, T/C (second compound 0.316 µM, first compound 3.16 µM): 96.9% | viability, T/C (second compound 0.316 µM, first compound 10 µM): 110% | viability, T/C [7]: 114% | viability, T/C [8]: 97.8% | viability, T/C (second compound 1 µM, first compound 0.316 µM): 99.7% | viability, T/C (second compound 1 µM, first compound 1 µM): 90.7% | viability, T/C (second compound 1 µM, first compound 3.16 µM): 127% | viability, T/C (second compound 1 µM, first compound 10 µM): 106% | viability, T/C (second compound 3.16 µM, first compound 0.0316 µM): 95.9% | viability, T/C (second compound 3.16 µM, first compound 0.1 µM): 92.2% | viability, T/C (second compound 3.16 µM, first compound 0.316 µM): 106% | viability, T/C (second compound 3.16 µM, first compound 1 µM): 92.8% | viability, T/C (second compound 3.16 µM, first compound 3.16 µM): 97.3% | viability, T/C (second compound 3.16 µM, first compound 10 µM): 113% | viability, T/C (second compound 10 µM, first compound 0.0316 µM): 79.7% | viability, T/C (second compound 10 µM, first compound 0.1 µM): 97.2% | viability, T/C (second compound 10 µM, first compound 0.316 µM): 106% | viability, T/C (second compound 10 µM, first compound 1 µM): 97.1% | viability, T/C (second compound 10 µM, first compound 3.16 µM): 107% | viability, T/C (second compound 10 µM, first compound 10 µM): 119%

CC(=O)c1c(C)c2cnc(Nc3ccc(N4CCNCC4)cn3)nc2n(C2CCCC2)c1=O + COc1c(OCCCN2CCOCC2)ccc2c3n(c(=NC(=O)c4cnc(N)nc4)nc12)CCN3
IC50 (second compound 0.00316 µM): > 0.1 µM | IC50 (second compound 0.01 µM): > 0.1 µM | IC50 (second compound 0.0316 µM): > 0.1 µM | IC50 (second compound 0.1 µM): > 0.1 µM | IC50 (second compound 0.316 µM): < 0.000316 µM | IC50 (second compound 1 µM): < 0.000316 µM | viability, T/C (second compound 0.00316 µM, first compound 0.000316 µM): 92.9% | viability, T/C (second compound 0.00316 µM, first compound 0.001 µM): 95.8% | viability, T/C (second compound 0.00316 µM, first compound 0.00316 µM): 94.7% | viability, T/C (second compound 0.00316 µM, first compound 0.01 µM): 88.5% | viability, T/C (second compound 0.00316 µM, first compound 0.0316 µM): 87.5% | viability, T/C (second compound 0.00316 µM, first compound 0.1 µM): 74.7% | viability, T/C (second compound 0.01 µM, first compound 0.000316 µM): 89.8% | viability, T/C (second compound 0.01 µM, first compound 0.001 µM): 99.5% | viability, T/C (second compound 0.01 µM, first compound 0.00316 µM): 92.2% | viability, T/C (second compound 0.01 µM, first compound 0.01 µM): 101% | viability, T/C (second compound 0.01 µM, first compound 0.0316 µM): 78% | viability, T/C (second compound 0.01 µM, first compound 0.1 µM): 60.9% | viability, T/C (second compound 0.0316 µM, first compound 0.000316 µM): 72.4% | viability, T/C (second compound 0.0316 µM, first compound 0.001 µM): 79.9% | viability, T/C (second compound 0.0316 µM, first compound 0.00316 µM): 73.2% | viability, T/C (second compound 0.0316 µM, first compound 0.01 µM): 73.8% | viability, T/C [1]: 86.3% | viability, T/C [2]: 74.3% | viability, T/C (second compound 0.1 µM, first compound 0.000316 µM): 64.2% | viability, T/C (second compound 0.1 µM, first compound 0.001 µM): 49.7% | viability, T/C (second compound 0.1 µM, first compound 0.00316 µM): 64.5% | viability, T/C (second compound 0.1 µM, first compound 0.01 µM): 59.3% | viability, T/C [3]: 62.1% | viability, T/C [4]: 54.6% | viability, T/C (second compound 0.316 µM, first compound 0.000316 µM): 46.7% | viability, T/C (second compound 0.316 µM, first compound 0.001 µM): 39% | viability, T/C (second compound 0.316 µM, first compound 0.00316 µM): 37% | viability, T/C (second compound 0.316 µM, first compound 0.01 µM): 42.2% | viability, T/C [5]: 45.5% | viability, T/C [6]: 44.7% | viability, T/C (second compound 1 µM, first compound 0.000316 µM): 41.5% | viability, T/C (second compound 1 µM, first compound 0.001 µM): 37.3% | viability, T/C (second compound 1 µM, first compound 0.00316 µM): 34.8% | viability, T/C (second compound 1 µM, first compound 0.01 µM): 33.5% | viability, T/C [7]: 34.3% | viability, T/C [8]: 27.9%
